Data on four compounds can be found in article PMC12394750, “2H-1,4-Benzoxazin-3(4H)-one linked 1,2,3-triazole derivatives and their study on inducing DNA damage in tumor cells” (Frontiers in Pharmacology, 2025).

Data set [1] in a line: CCK-8 cell viability, L02. As to conditions: human, L02 normal liver cells. It counts as cell-based.
The test system of data set [2] is Huh-7 cells. The data set can be described thus: Western blot protein expression. Conditions: Huh-7, 72 h (Figure 6 legend 24 h), 20 or 30 μM. It counts as cell-based, human. Here is the method: To further examine the regulatory effects of 2H-1,4-benzoxazin-3(4H)-one linked 1,2,3-triazole derivatives on protein expression, Huh-7 cells were treated with compounds c5, c14, c16, and c18 for 72 h, after which whole-cell protein lysates were collected for analysis.
FIGURE 6 Compounds c5, c14, c16, and c18 affected DNA damage and autophagy. (A–D) Huh-7 cells were treated with different concentrations of compounds c5, c14, c16, and c18 (20 or 30 μM) for 24 h. Protein expressions were analyzed by Western blot. Top: Western blot; bottom: quantitative measurements relative to ACTIN. Data were presented as means ± SEM; *P < 0.05.
Antibodies used in Western blot were as follows: caspase3, caspase9, LC3, γ-H2AX, PARP, cyclin D, cyclin E, β-catenin (all from Cell Signaling Technology, United States), and β-actin (Sigma, United States). Cells were treated with compounds (0 μM, 5 μM, 10 μM, 20 μM, or 30 μM) for 72 h, and the whole-cell proteins were collected using RIPA buffer containing protease/phosphatase inhibitor cocktail. The protein expressions were measured and analyzed using Western blot. Values were expressed as mean ± SEM. Statistical significance was assessed using a two-tailed Student’s t-test. P < 0.05 was considered statistically significant. Data were visualized using GraphPad Prism.

A further data set concerns A549 (lung cancer). The data set can be described thus: CCK-8 cell viability, A549. As to conditions: Homo sapiens, 72 h. Format: cell-based. Here is the method:
(§1) To assess the cytotoxic potential of the newly synthesized compounds c1–c20, a panel of human tumor cell lines—including Huh-7 (hepatocellular carcinoma), MCF-7 (breast cancer), and A549 (lung cancer)—was treated with each compound at a concentration of 50 μM for 72 h. Cell viability and cytotoxicity were evaluated using the CCK-8 assay.
(§2) Cells were cultured in DMEM or RPMI 1640 medium with 10% FBS and 1% penicillin/streptomycin at 37 °C and 5% CO2. A CCK-8 assay was performed with several human cancer cell lines, including A549, Huh-7, MCF-7, HCT-116, and SKOV3, according to the instructions. Cells were plated at a density of 1,000–3,000 cells per well in a 96-well plate. After 24-h incubation, cells were treated with 40 μM compounds for 48 h or 50 μM compounds for 72 h. Cell viability was measured by adding 10 μL per well of CCK-8 reagent, which was dissolved in the cell culture medium, for 1 hour. Absorbance was taken at 450 nm using a microplate reader. The IC50 values of the compounds were further determined. Cells were seeded in a 96-well plate at a density of 1 × 10^3 cells/well. After adhering overnight, cells treated with […] concentrations (10 μM, 20 μM, 40 µM, or 80 μM) were used to draw the dose–response curve, and IC50 values were calculated by GraphPad Prism software. The CCK-8 assay was performed in triplicate, and each experiment was repeated at least three times. The results were expressed as mean ± SEM, and P < 0.05 was considered statistically significant.

A further data set concerns MCF-7 (breast cancer). The data set can be described thus: CCK-8 cell viability, MCF-7. It counts as cell-based. Conditions: Homo sapiens, MCF7, 72 h. As for the experimental part:
as §1, §2

For data set [3], the system named is Huh-7 (hepatocellular carcinoma). The data set can be described thus: CCK-8 cell viability / IC50, Huh-7. As to conditions: Homo sapiens, Huh-7, 72 h; for viability at 50 µM: CCK-8; for IC50: CCK-8 dose-response. It counts as cell-based, human. Here is the method:
as §1, §2

Data set [4] deals with Huh-7 cells. The data set can be described thus: Autophagy staining assay (MDC probe). Format: cell-based, human. Conditions: Huh-7, 10, 20 or 30 μM, 24 h; especially at doses lower than 30 μM. As for the experimental part:
To further evaluate the role of 2H-1,4-benzoxazin-3(4H)-one linked 1,2,3-triazole derivatives in regulating autophagy, Huh-7 cells were treated with different doses (10 μM, 20 μM, or 30 μM) of compounds c5, c14, c16, and c18 for 24 h, and the autophagosome was detected by the MDC (monodansylcadaverine) probe. MDC could specifically label autophagosomes, which will show as green, and we can directly observe them using a fluorescence microscope.
FIGURE 8 Compounds c5, c14, c16, and c18 affected autophagy. Autophagy staining in Huh-7 cells treated with compounds c5, c14, c16, and c18 (10 μM, 20 μM, or 30 μM).
Huh-7 cells were seeded in a 96-well plate at a density of 2 × 10^3 cells/well. Cells were treated with compounds at the doses of 0 μM, 5 μM, 10 μM, 20 μM, or 30 μM. After 24 h of treatment, the medium was removed, and cells were stained with monodansylcadaverine for 1 h in the dark at 37 °C. The cells were photographed with confocal microscopy.

Data set [5] relates to Huh-7 cells. Put plainly: Calcein AM/PI live/dead viability assay. Format: cell-based, human. As to conditions: Huh-7, 10, 20 or 30 μM, 24 h. As for the experimental part: To evaluate the anti-proliferative effects of 2H-1,4-benzoxazin-3(4H)-one linked 1,2,3-triazole derivatives, live/dead cell staining was performed using Calcein AM and PI on Huh-7 cells. The cells were treated with different concentrations (10 μM, 20 μM, or 30 μM) of compounds c5, c14, c16, and c18 for 24 h. Living cells were stained green by Calcein AM, while dead cells were stained red by PI.
FIGURE 4 Compounds c5, c14, c16, and c18 increased dead cells and decreased living cells. (A–D) Huh-7 cells were treated with different concentrations of compounds c5, c14, c16, and c18 (10 μM, 20 μM, or 30 μM) for 24 h. Living and dead cells were stained with Calcein AM and PI, respectively, and then observed by confocal microscopy. Data were presented as means ± SEM; *P < 0.05.
A live and dead viability assay was performed using the Calcein/PI Live/Dead Viability Assay Kit. Cells were plated at a density of 2 × 10^3 cells per well in a 96-well plate to adhere overnight. Then, compounds were added with different concentrations for 24 h. The medium was replaced with cell culture medium containing Calcein AM and propidium iodide for 30 min at 37 °C in the dark. Cells were then observed and photographed by confocal microscopy.

On to `O=C1COc2cc(NC(=O)c3cccc(-c4cn(Cc5ccc(Br)cc5)nn4)c3)ccc2N1` [compound c5, 3-(1-(4-bromobenzyl)-1H-1,2,3-triazol-4-yl)-N-(3-oxo-3,4-dihydro-2H-benzo[b][1,4]oxazin-7-yl)benzamide], for which the viability at 72 h, 50 µM in data set [1] came out at 101 ± 3.35%. In the data set with Huh-7 cells [2], the H2AX protein expression entry is “upregulated”, the LC3 protein expression entry is listed as “significantly induced”, the PARP protein expression result is reported as “upregulated” and the caspase-3 protein expression entry is recorded as “upregulated”. Moreover, in the data set on Huh-7 cells [2], the “cyclin D protein expression” value is listed as “downregulated”. Further, the viability at 50 µM with A549 (lung cancer) turned out to be 90.8 ± 5.32%. Moreover, the viability at 50 µM in the data set with MCF-7 (breast cancer) turned out to be 107 ± 2.85%. Besides, in data set [3], the viability at 50 µM turned out to be 15.1 ± 0.43% and the IC50 came out at 28.5 ± 0.29 µM. The “Autophagosomes (MDC probe)” value with Huh-7 cells [4] is reported as “increased”. In addition, in the data set on Huh-7 cells [5], the “Dead cells (PI) in live/dead staining” value is recorded as “dose-dependent increase”.

For `O=C1COc2cc(NC(=O)c3cccc(-c4cn(Cc5cccc(F)c5)nn4)c3)ccc2N1` [compound c14, 3-(1-(3-fluorobenzyl)-1H-1,2,3-triazol-4-yl)-N-(3-oxo-3,4-dihydro-2H-benzo[b][1,4]oxazin-7-yl)benzamide], the viability at 72 h, 50 µM in data set [1] amounted to 116 ± 1.18%. In the data set with Huh-7 cells [2], the H2AX protein expression result is recorded as “upregulation”, the LC3 protein expression entry was “upregulation”, the PARP protein expression result is on record as “upregulation” and the “cyclin D protein expression” value is on record as “downregulation”. The viability at 50 µM in the data set with A549 (lung cancer) is 77.5 ± 3.1%. Moreover, the viability at 50 µM in the data set on MCF-7 (breast cancer) stood at 106 ± 1.48%. In addition, in data set [3], the viability at 50 µM worked out at 18.1 ± 0.76% and half-maximal inhibition (IC50) required 32.6 ± 1.23 µM. Also, the “Autophagosomes (MDC probe)” value in the data set on Huh-7 cells [4] was “increased”. Also, the “Dead cells (PI) in live/dead staining” value in the data set with Huh-7 cells [5] is “dose-dependent increase”.

Regarding `O=C1COc2cc(NC(=O)c3cccc(-c4cn(Cc5ccc(C(F)(F)F)cc5)nn4)c3)ccc2N1` [compound c16, N-(3-oxo-3,4-dihydro-2H-benzo[b][1,4]oxazin-7-yl)-3-(1-(4-(trifluoromethyl)benzyl)-1H-1,2,3-triazol-4-yl)benzamide], in data set [1], the viability at 72 h, 50 µM was 117 ± 1.41%. Besides, in the data set with Huh-7 cells [2], the H2AX protein expression result is reported as “upregulation”, the LC3 protein expression result is given as “upregulation”, the PARP protein expression result is “upregulation” and the “cyclin D protein expression” value is reported as “downregulation”. Further, the viability at 50 µM in the data set with A549 (lung cancer) was determined as 76.8 ± 4.31%. Besides, the viability at 50 µM with MCF-7 (breast cancer) turned out to be 101.6 ± 0.92%. For the same compound, in data set [3], the viability at 50 µM was 17.7 ± 1.27% and 31.87 ± 0.04 µM corresponded to half-maximal inhibition (IC50). For the same compound, in the data set with Huh-7 cells [4], the “Autophagosomes (MDC probe)” value is given as “increased”. Moreover, the “Dead cells (PI) in live/dead staining” value with Huh-7 cells [5] is on record as “dose-dependent increase”.

Consider `O=C1COc2cc(NC(=O)c3cccc(-c4cn(Cc5ccc(Cl)cc5)nn4)c3)ccc2N1` [compound c18, 3-(1-(4-chlorobenzyl)-1H-1,2,3-triazol-4-yl)-N-(3-oxo-3,4-dihydro-2H-benzo[b][1,4]oxazin-7-yl)benzamide], for which the viability at 72 h, 50 µM in data set [1] stood at 117 ± 1.27%. Moreover, in the data set on Huh-7 cells [2], the H2AX protein expression entry is “upregulation”, the LC3 protein expression result is listed as “upregulation”, the PARP protein expression entry is listed as “upregulation” and the “cyclin D protein expression” value was “downregulation”. In addition, the viability at 50 µM in the data set with A549 (lung cancer) came out at 89.8 ± 2.89%. Further, in the data set on MCF-7 (breast cancer), the viability at 50 µM is 103 ± 1.83%. For the same compound, in data set [3], the viability at 50 µM was 17.1 ± 0.43% and inhibition was half-maximal at 19.05 ± 0.12 µM (IC50). For the same compound, the “Autophagosomes (MDC probe)” value in the data set on Huh-7 cells [4] is listed as “increased”. Further, the “Dead cells (PI) in live/dead staining” value with Huh-7 cells [5] was “dose-dependent increase”.
